Experimental findings from patent US20130310256A1, “HERBICIDAL COMPOSITIONS COMPRISING 4-AMINO-3-CHLORO-5-FLUORO-6-(4-CHLORO-2-FLUORO-3-METHOXYPHENYL) PYRIDINE-2-CARBOXYLIC ACID OR A DERIVATIVE THEREOF AND VLCFA AND LIPID SYNTHESIS INHIBITING HERBICIDES” (DOW AGROSCIENCES LLC, priority 2008, published 2013) are described below.

The test has as its system ECHOR. As to the kind of experiment: Example II: in-water applied weed control, transplanted paddy rice, greenhouse. It is filed as in vivo, Echinochloa oryzoides (Ard.) Fritsch (early watergrass). The method in brief:
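Transplanted rice and weeds at the first to fourth true leaf stage in flooded mud pots (pH ~7.6 soil), greenhouse ~29/26 °C, 14 h photoperiod. Compound A (acid equivalent) and VLCFA/lipid-synthesis herbicides (active ingredient) injected into the paddy water in 1.25% crop oil concentrate. Injury scored visually at ~3 weeks versus untreated, 0–100%.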

“And” between values parts separate entries of the source, which are not always exact repeats. Equal entries are not always repeated. Where two headings read alike, the source gives them in different places.

For the molecule `CCS(=O)(=O)Oc1ccc2c(c1)C(C)(C)CO2` [Benfuresate, 2,3-dihydro-3,3-dimethyl-5-benzofuranyl ethanesulfonate], the pest or weed control at 150 g/ha (Echinochloa oryzoides, 528 h, 150 gai/ha (Full Slot), 22 DAA, read-out: Visual Weed Control ECHOR Obs) stood at 0%.
Take `CCCOCCN(C(=O)CCl)c1c(CC)cccc1CC` [Pretilachlor, 2-chloro-N-(2,6-diethylphenyl)-N-(2-propoxyethyl)acetamide]: the “Visual Weed Control (%) - 20 DAA ECHOR Obs” value reads like this: (75 gai/ha) 0%; (150 gai/ha) 30%.
With `COc1c(Cl)ccc(-c2nc(C(=O)O)c(Cl)c(N)c2F)c1F` [Compound A Acid, 4-amino-3-chloro-6-(4-chloro-2-fluoro-3-methoxyphenyl)-5-fluoropyridine-2-carboxylic acid], the “Visual Weed Control (%) - 20 DAA ECHOR Obs” value is, setting by setting: (8.75 gae/ha) 10%; (17.5 gae/ha) 25%; (35 gae/ha) 25%. In addition, the “Visual Weed Control (%) - 21 DAA ECHOR Obs” value reads like this: (17.5 gae/ha) 25% and 20%; (35 gae/ha) 30% and 35%. The pest or weed control at 35 g/ha (Echinochloa oryzoides, 504 h, 35 gae/ha, 21 DAA, read-out: Visual Weed Control ECHOR Obs) is 30%.
For the molecule `CCN(CC)C(=O)n1cnc(S(=O)(=O)c2c(C)cc(C)cc2C)n1` [Cafenstrole, N,N-diethyl-3-[(2,4,6-trimethylphenyl)sulfonyl]-1H-1,2,4-triazole-1-carboxamide], the pest or weed control at 52.5 g/ha reads like this: (Echinochloa oryzoides, 504 h, 52.5 gai/ha (Himeadow WP), 21 DAA, read-out: Visual Weed Control ECHOR Obs) 10%; (Echinochloa oryzoides, 504 h, 52.5 gai/ha (Lapost Flowable), 21 DAA, read-out: Visual Weed Control ECHOR Obs) 70%. For the same molecule, under “Echinochloa oryzoides, 504 h, 105 gai/ha (Himeadow WP), 21 DAA, read-out: Visual Weed Control ECHOR Obs”, the pest or weed control at 105 g/ha was 30%.
Turning to `COc1c(Cl)ccc(-c2nc(C(=O)OCc3ccccc3)c(Cl)c(N)c2F)c1F` [Compound A Benzyl Ester, benzyl ester of 4-amino-3-chloro-5-fluoro-6-(4-chloro-2-fluoro-3-methoxy-phenyl)pyridine-2-carboxylic acid], the “Visual Weed Control (%) - 20 DAA ECHOR Obs” value (4.38 gae/ha) worked out at 10%, the “Visual Weed Control (%) - 20 DAA ECHOR Obs” value (8.75 gae/ha) is recorded as 20% and the “Visual Weed Control (%) - 20 DAA ECHOR Obs” value (17.5 gae/ha) is reported as 50%. The “Visual Weed Control (%) - 21 DAA ECHOR Obs” value (8.75 gae/ha) was 15% and 25%. Further, the pest or weed control at 4.38 g/ha (Echinochloa oryzoides, 480 h, 4.38 gae/ha, 20 DAA, read-out: Visual Weed Control ECHOR Obs) worked out at 10%. For the same molecule, the pest or weed control at 8.75 g/ha came out at 20% (Echinochloa oryzoides, 480 h, 8.75 gae/ha, 20 DAA, read-out: Visual Weed Control ECHOR Obs); 15% (Echinochloa oryzoides, 504 h, 8.75 gae/ha, 21 DAA, read-out: Visual Weed Control ECHOR Obs); 35% (Echinochloa oryzoides, 528 h, 8.75 gae/ha, 22 DAA, read-out: Visual Weed Control ECHOR Obs). Also, the pest or weed control at 17.5 g/ha by setting is: (Echinochloa oryzoides, 480 h, 17.5 gae/ha, 20 DAA, read-out: Visual Weed Control ECHOR Obs) 50%; (Echinochloa oryzoides, 528 h, 17.5 gae/ha, 22 DAA, read-out: Visual Weed Control ECHOR Obs) 30%.
